Here are results for nine compounds from patent publication EP1439177B1, “Antiviral activity and resolution of 2-hydroxymethyl-5-(5-fluorocytosin-1-yl)-1,3-oxathiolane” (Emory University, priority 1991, dated 1992).

The structures appear in SMILES notation.

The test system of the first data set is HIV. As to the kind of experiment: microbe, parasite or virus in culture. It is filed as cell-based. The settings on record: Human immunodeficiency virus 1; MT4 system.
Consider `CCCC(=O)OC[C@@H]1O[C@H](n2cc(F)c(N)nc2=O)CS1` (racemic) [5'-O-butyrate ester of (±)-FTC], for which the EC50 (as a rule, the concentration giving half of the maximal effect) came out at 0.04 µM.

In another data set the test system is uninfected human PBM cells. As to the kind of experiment: Growth inhibition of mitogen-stimulated uninfected human PBM cells, trypan blue exclusion. The settings on record: uninfected human PBM cells, 6 days; error estimated at ±10%; read-out: Cytotoxicity IC50. It is filed as cell-based.
For `Cc1cn(C2CSC(CO)O2)c(=O)[nH]c1=O` (stereo not shown) [DLS-010], the CC50 was more than 100 µM.

As for `Cc1cn([C@H]2CS[C@@H](CO)O2)c(=O)nc1N` [DLS-011], the CC50 is more than 100 µM. For the compound `Nc1nc(=O)n([C@H]2CS[C@@H](CO)O2)cc1Br` [DLS-021], the CC50 was more than 100 µM. As for `Nc1nc(=O)n([C@H]2CS[C@@H](CO)O2)cc1Cl` [DLS-023], the CC50 is more than 100 µM.

As to `Nc1nc(=O)n([C@H]2CS[C@@H](CO)O2)cc1I` [DLS-026], the CC50 is more than 100 µM. For `O=c1[nH]c(=O)n([C@H]2CS[C@@H](CO)O2)cc1Cl` [DLS-028], the CC50 was more than 100 µM.

Regarding `Nc1nc(=O)n([C@@H]2CS[C@H](CO)O2)cc1C(F)(F)F` [DLS-053], the CC50 is more than 100 µM.

The next data set deals with HIV-1 (strain LAV). As to the kind of experiment: microbe, parasite or virus in culture. It is filed as cell-based. The settings on record: Human immunodeficiency virus 1, PBMC. From the text: It is often desirable to screen a number of racemic mixtures of nucleosides as a preliminary step to determine which warrant further resolution into enantiomerically enriched components and further evaluation of antiviral activity. The ability of nucleosides to inhibit HIV can be measured by various experimental techniques. The technique used herein, and described in detail below, measures the inhibition of viral replication in phytohemagglutinin (PHA) stimulated human peripheral blood mononuclear (PBM) cells infected with HIV-1 (strain LAV). The amount of virus produced is determined by measuring the virus-coded reverse transcriptase enzyme. The amount of enzyme produced is proportional to the amount of virus produced.
• A. Three-day-old phytohemagglutinin-stimulated PBM cells (10^6 cells/ml) from hepatitis B and HIV-1 seronegative healthy donors were infected with HIV-1 (strain LAV) at a concentration of about 100 times the 50% tissue culture infectious dose (TICD 50) per ml and cultured in the presence and absence of various concentrations of antiviral compounds. • B. Approximately one hour after infection, the medium, with the compound to be tested (2 times the final concentration in medium) or without compound, was added to the flasks (5 ml; final volume 10 ml). AZT was used as a positive control. • C. The cells were exposed to the virus (about 2 x 10^5 dpm/ml, as determined by reverse transcriptase assay) and then placed in a CO2 incubator. HIV-1 (strain LAV) was obtained from the Center for Disease Control, Atlanta, Georgia. The methods used for culturing the PBM cells, harvesting the virus and determining the reverse transcriptase activity were those described by McDougal et al. (J. Immun. Meth. 76, 171-183, 1985) and Spira et al. (J. Clin. Meth. 25, 97-99, 1987), except that fungizone was not included in the medium (see Schinazi, et al., Antimicrob. Agents Chemother. 32, 1784-1787 (1988); Id., 34:1061-1067 (1990)). • D. On day 6, the cells and supernatant were transferred to a 15 ml tube and centrifuged at about 900 g for 10 minutes. Five ml of supernatant were removed and the virus was concentrated by centrifugation at 40,000 rpm for 30 minutes (Beckman 70.1 Ti rotor). The solubilized virus pellet was processed for determination of the levels of reverse transcriptase. Results are expressed in dpm/ml of sampled supernatant. Virus from smaller volumes of supernatant (1 ml) can also be concentrated by centrifugation prior to solubilization and determination of reverse transcriptase levels.
In turn, `CCCC(=O)OC[C@@H]1O[C@H](n2cc(F)c(N)nc2=O)CS1` (racemic) [5'-O-butyrate ester of (±)-FTC] showed an EC50 of 0.0017 µM. Same read-out and setting: the same measure for `CC(=O)Nc1nc(=O)n([C@@H]2CS[C@H](CO)O2)cc1F` (racemic) [N^4-acetyl derivative of (±)-FTC]: 0.0028 µM.
